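Growth conditions: 96-well plates. Treatment: test compound, 48 hours, 5 concentrations. Analysis: linear interpolation between bracketing concentrations; unreached endpoints set to highest concentration. GI50 is the concentration that inhibits growth by half. Definition used: TGI = concentration required for complete inhibition of growth.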

From PubChem BioAssay (NCI) come the findings set out here.

Holding throughout (assay): growth of human tumour cells (NCI), 48 h
In test [1] the test system is UACC-257 melanoma.
Test [2] concerns OVCAR-8 ovarian.
The subject of test [3] is UACC-62 melanoma.
Test [4] concerns SK-OV-3 ovarian.
Test [5] has as its system NCI-H522 lung.
For test [6], the system named is SN12C renal.

Consider `Cc1c(C)c(C)c(Cn2[nH]c(=O)n(C)c2=O)c(C)c1C`, for which the TGI in test [1], in test [2], in test [3], in test [4], in test [5] and in test [6] was greater than 100 µM in each case.

Turning to `NC(N)=NS(=O)(=O)c1ccc(N/N=C2/CCOC2=O)cc1`, the TGI in test [1], in test [2], in test [3], in test [4] and in test [6] was greater than 100 µM each time.

On to `CCc1c2c(cc3c1CC1(C3)Cc3cc4c(c(C(=O)OC)c3C1)CCCC4)CCCC2` (centres undefined), for which the TGI in test [1] was greater than 100 µM; in test [2], greater than 100 µM; in test [3], 35.1 µM; in test [4] it was greater than 100 µM; in test [5], greater than 100 µM; in test [6] it was greater than 100 µM.

As to `CC1(c2sccc2Cl)CC(c2sccc2Cl)=C(C#N)C(=C(C#N)C#N)N1` (centres undefined), the TGI was found to be 39.2 µM in test [1]; 39 µM in test [2]; 32.5 µM in test [3]; 31.5 µM in test [4]; 35.8 µM in test [5]; 42.9 µM in test [6].

With `CC12C3C4C1C1C2C3C41CO` (centres undefined), the TGI in test [1], in test [2], in test [3], in test [4] and in test [6] was greater than 100 µM in each case.

Take `CC1(C)[C@@H]2C[C@H]1[C@@H](Cc1cccc(C[C@H]3c4cc(-c5ccccn5)ncc4[C@H]4C[C@@H]3C4(C)C)c1)c1cc(-c3ccccn3)ncc12`: the TGI is greater than 100 µM in test [1]; greater than 43.9 µM in test [2]; greater than 100 µM in test [3]; greater than 100 µM in test [4]; greater than 70.8 µM in test [5]; greater than 29.9 µM in test [6].

`CC(=O)c1[nH]c(NC(C)C)c(C(=S)Nc2ccccc2)c1N`: the TGI is 65.8 µM in test [1]; 94.9 µM in test [2]; 53.8 µM in test [3]; greater than 100 µM in test [4]; 31.7 µM in test [5]; 75.1 µM in test [6].

With `CCOC(=O)c1nc2ccc(C(F)(F)F)cc2nc1Nc1cc(OC)c(OC)c(OC)c1`, the TGI in test [1], in test [2], in test [3], in test [4], in test [5] and in test [6] was greater than 100 µM in each case.

Take `O=C(CN(C(=O)OC12CC3CC(CC(C3)C1)C2)C(=O)OC12CC3CC(CC(C3)C1)C2)Oc1ccc([N+](=O)[O-])cc1`: the TGI in test [1], in test [2], in test [3], in test [4], in test [5] and in test [6] was greater than 100 µM throughout.

As to `CCOC(=O)NN(C(=O)OCC)C(C(=O)C1=CCCCC1)N(NC(=O)OCC)C(=O)OCC`, the TGI in test [1], in test [2], in test [4], in test [5] and in test [6] was greater than 100 µM each time.

On to `OC1c2ccccc2CCC1CN1CCN(CCOC(c2ccc(F)cc2)c2ccc(F)cc2)CC1` (centres undefined), for which the TGI is 35.3 µM in test [1]; 28.5 µM in test [2]; 27.7 µM in test [3]; greater than 100 µM in test [4]; 33.6 µM in test [5]; 27.3 µM in test [6].

As to `CCOC(=O)/C=C(\C(=O)OCC)n1ccc(=O)n(Cc2cnnn2CCCCOC(C)=O)c1=O`, the TGI in test [1] is 27.4 µM; in test [2], 13.9 µM; in test [3], 23.4 µM; in test [4], greater than 75.7 µM; in test [5] it was 3.05 µM; in test [6] it was 45.3 µM.

Consider `S=C(N/N=C(\c1ccccc1)c1ccccn1)NC1CCCCC1`, for which the TGI in test [1] is greater than 100 µM; in test [2] it was 3.44 µM; in test [3] it was greater than 100 µM; in test [4] it was greater than 100 µM; in test [5] it was greater than 100 µM; in test [6], greater than 100 µM.

For `CC(=O)Nc1ccc2nc(-c3ccccn3)c(-c3ccccn3)nc2c1`, the TGI in test [1], in test [2], in test [3], in test [5] and in test [6] was greater than 100 µM each time.

Turning to `CCOP(=O)(OCC)/C(C#N)=C/c1cccn1C(C)C`, the TGI in test [1], in test [2], in test [3], in test [4], in test [5] and in test [6] was greater than 100 µM throughout.

As for `CSc1nc(C)cc(Nc2ccc(O)c(CN3CCOCC3)c2)n1`, the TGI in test [1], in test [2], in test [3], in test [4], in test [5] and in test [6] was greater than 100 µM throughout.

`COC1CCON1C(=O)c1ccccc1` (centres undefined): the TGI in test [1], in test [2], in test [4], in test [5] and in test [6] was greater than 10 µM in each case.

For the compound `CCOC(=O)C(NC(=O)c1ccccc1)(Nc1ccc(S(=O)(=O)Nc2ncccn2)cc1)C(F)(F)F` (centres undefined), the TGI in test [1], in test [2], in test [3], in test [4] and in test [6] was greater than 100 µM in each case.

For the compound `COc1ccccc1Cc1ccc(C2C=CC3(CC(=O)C=C3C)C(=O)C2)o1` (centres undefined), the TGI stood at 68.9 µM in test [1]; 37.1 µM in test [2]; 31.8 µM in test [3]; 37.4 µM in test [5]; 58.5 µM in test [6].

Regarding `CC(=O)Oc1cc(S(=O)(=O)Nc2n[nH]c(Nc3ccc(C)cc3)n2)c(S)cc1Cl`, the TGI in test [1], in test [2], in test [3], in test [5] and in test [6] was greater than 100 µM throughout.

On to `CN(C)c1ccc(/C=C/c2ccc(S(N)(=O)=O)cc2)cc1`, for which the TGI in test [1] was greater than 100 µM; in test [2], 27.5 µM; in test [4], 31.4 µM; in test [5], 25.6 µM; in test [6], 51.1 µM. Moreover, the GI50 is 4.95 µM in test [2] and 6.88 µM in test [5].

Regarding `COC(=O)C1Cc2ccc(O)c(O)c2CN1` (centres undefined), the TGI in test [1] was 29.2 µM; in test [3], 39 µM; in test [4], greater than 100 µM; in test [5], greater than 100 µM; in test [6], 30 µM.
